Source: patent US20080125432A1 (Devgen NV, priority 2004, published 2008)

Experiments:
[1] = target: T1, IK1 (Kir2.1) (Homo sapiens, UniProt P63252); assay: Whole-cell patch clamp in human atrial myocytes: IK1; type: cell-based; settings: n = 3 cells
T1 construct: endogenous in cells; host or cells: freshly isolated human atrial myocytes
T1 sequence (P63252 1-427): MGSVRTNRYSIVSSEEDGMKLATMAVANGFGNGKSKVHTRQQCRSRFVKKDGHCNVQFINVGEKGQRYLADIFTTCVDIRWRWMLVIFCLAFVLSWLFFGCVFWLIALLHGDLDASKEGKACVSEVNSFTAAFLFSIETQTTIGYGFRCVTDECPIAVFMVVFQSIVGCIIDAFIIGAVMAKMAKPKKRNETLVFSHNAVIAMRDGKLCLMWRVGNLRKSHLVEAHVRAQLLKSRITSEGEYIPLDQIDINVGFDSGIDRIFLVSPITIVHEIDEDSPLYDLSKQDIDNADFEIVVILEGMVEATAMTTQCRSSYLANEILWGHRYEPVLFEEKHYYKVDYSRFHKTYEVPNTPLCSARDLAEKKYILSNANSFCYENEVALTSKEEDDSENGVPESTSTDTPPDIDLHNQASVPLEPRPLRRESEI
Description: The blocking profile of the compounds of the invention is determined on the following channels of the human atrial myocytes: INa, Ito, Isus and IK1 channel currents.
Human atrial myocytes: Myocytes were prepared from specimens with grossly normal anatomical aspect, excised from hearts of patients with normal P-wave electrocardiogram, undergoing bypass surgery. Human atrial sample were obtained following approval by the ethical committee. […]
Experiments were performed at room temperature (20-25° C.) for INa and at 32-34° C. for Ito, Isus, IK1. Currents were measured using the whole-cell variant of the patch clamp method. […]
After rupture of the cell membrane to enter the whole-cell mode, current amplitude and kinetics were allowed to stabilize for 3-7 min before initiating the experimental procedure. K^+ currents recorded from human atrial myocytes were elicited by a 500 ms pulse to +60 mV from a holding potential of −50 mV for Ito and Isus. Ito was measured as a peak current amplitude whereas Isus as a current present at the end of the 500 ms voltage pulse. In addition, the area under the curve, before and after compound, were measured over the course of the pulse period. […]

[2] = test system: isolated rat left atria; assay: Ex-vivo organ study: functional refractory period in isolated rat left atria; settings: conc 10^−5 mol/l
Excerpt: The compounds were checked for their effect on the force of contraction, stimulation threshold and for the Functional Refractory Period (FRP) in isolated rat left atria (Rat LA). Rat left atria functionally express the Kv4.3 ion channel, producing the Ito current of the action potential. […] The guinea pig action potential is dominated by hERG like ion channels for the refractory currents. Consequently, activity of hERG channels in vivo should be seen in GP pap muscle preparations.
Left atria were mounted vertically in a two-chambered organ bath containing 100 ml of buffer solution (in mM: NaH2PO4 0.6, MgSO4 0.6, KCl 4.7, NaHCO3 25, glucose 4.5, NaCl-120, CaCl2 2.4). […] The isometric force of the preparations was measured by force transducers, connected to amplifiers, documented by a pen recorder and fed into a computer for evaluation. Force of contraction (FC), threshold stimulus (TS) and the functional refractory period (FRP) were measured at baseline (pre), 20 min after addition of compound, and after washout at the end of the experiment. Threshold stimulus, representing excitability of the tissue, was assessed by varying the voltage applied for electrical stimulation. […] The functional refractory period, representing the time needed for repolarization, was assessed by applying extra stimuli at varying time intervals from the preceding regular pacing stimulus. […]

## COc1ccccc1Nc1nc(C)c(C(=O)N[C@H]2CCC[C@@H]2OCc2ccccc2)s1 [Compound 68, 2-(2-methoxy-phenylamino)-4-methyl-thiazole-5-carboxylic acid (1S,2S)-2-(benzyloxycyclopent-1-yl) amide]
[1]
  Block at 10 μM in %: IK1 (Kir2.1): −2.7 ± 2.0%
[2]
  dFRP Rat: 13 ms
